Test system: Aedes aegypti (yellow fever mosquitoes)
Experiment: Repellent activity with respect to mosquitoes, treated forearm in cage (Swiss Tropic Institute method)
Type: in vivo
Conditions: 2 ml on 250 cm^2 forearm, 400 mosquitoes in cage, hourly 10 min exposure

With `O=C(O)CC(O)(CC(=O)O)C(=O)O` [PC4, citric acid] the “repellent activity with respect to mosquitoes (result in words)” value was “surprisingly bad results”.
